According to patent publication US12060330B2, “Therapeutic indazoles” (priority 2017, dated 2024):
Entries after “also recorded” stand apart in the source; their conditions may differ.

Each molecule was assayed on DG167-resistant M. tuberculosis mutants.
Format: cell-based

Row | Structure (SMILES) | susceptibility of DG167-resistant mutants
1 | COc1nc2ccc(Br)cc2cc1[C@@H](c1ccccc1)[C@@](O)(CCN(C)C)c1cccc2ccccc12 [BDQ, bedaquiline] | remained susceptible
2 | CC[C@@H](CO)NCCN[C@@H](CC)CO [EMB, ethambutol] | remained susceptible
3 | CCc1cc(C(N)=S)ccn1 [ETH, ethionamide] | remained susceptible
4 | NNC(=O)c1ccncc1 [INH, isoniazid, reference compound] | remained susceptible
5 | O=[N+]([O-])c1cn2c(n1)OC[C@@H](OCc1ccc(OC(F)(F)F)cc1)C2 [PA824] | remained susceptible
6 | CC(C)=CCC/C(C)=C/CNCCNC1C2CC3CC(C2)CC1C3 (stereo not shown) [SQ109] | remained susceptible

Each molecule was assayed on mycolic acid biosynthesis.
Format: cell-based, M. tuberculosis

Row | Structure (SMILES) | inhibition of mycolic acid biosynthesis
7 | CCCCS(=O)(=O)Nc1ccc2cnn(C)c2c1 [DG167, N-(1-methyl-1H-indazol-6-yl)butane-1-sulfonamide] | dose-dependent inhibition; also recorded: resistant to DG167-mediated inhibition of mycolic acid biosynthesis
